Results on 7 compounds are retold here after patent US20220325239A1, “CELL CULTURE” (AGENCY FOR SCIENCE, TECHNOLOGY AND RESEARCH, priority 2019, published 2022).

Molecules are shown by their SMILES.

One series deals with hESC. The experiment in a line: Adaptation and survival of feeder-free hESCs in 4iLA supplemented with chemical combinations (C1-C21). It counts as cell-based, human. The note with it: condition 19 background. The text has this:
FIG. 2C is a diagram showing relative survival of hESC culture under 4 iLA supplemented with different chemical combinations conditions (C1-C21) over 9 passages without feeders. 4 iLA was included as control.
We next sought to find a condition that enables stable naïve culture by adapting feeder-free primed hESCs onto media supplemented by one or more of the hits at various concentrations (FIG. 2C, Table E2, below).

A further series has as its system FINE cells. Kind of series: Withdrawal or replacement of AZD5438 / Dasatinib in FINE culture. The class given is cell-based, human. The note with it: for sustaining feeder-free naïve hESCs when replacing Dasatinib in FINE: 2 passages; for morphology after withdrawal from FINE: withdrawal for 3 passages. The text has this:
FIG. 4A is a diagram showing brightfield and immunofluorescence staining of KLF4, TFE3 and KLF17 in FINE culture after withdrawal of AZD, Dasa or both for 3 passages. Scale bar=50 μm.
FIG. 4B is a diagram showing quantification of fraction of nuclei positive for naïve-associated transcription factors in hESCs cultured in FINE after withdrawal of AZD, Dasa or both for 3 passages. Mean±SD of three independent experiments.
FIG. 4C is a diagram showing expression of blastocyst-associated transcripts in hESCs cultured in FINE after withdrawal of AZD, Dasa or both for 2 passages. Mean±SD of three independent qPCR experiments.
FIG. 4D and FIG. 4E are diagrams showing expression of blastocyst-associated transcripts in hESCs cultured in FINE after (D) replacement of Dasa with other Src and Bcr-Abl inhibitors or (E) replacement of AZD with Dinaciclib (in H9 line) for 2 passages. Mean±SD of three independent qPCR experiments.
Therefore, we wanted to test if both are also important for the maintenance of naivety in FINE.

The next series has as its system hESCs. The experiment in a line: Expression of naïve / blastocyst / 8-cell markers under culture conditions (qPCR, immunofluorescence). The following applies: PD0325901 reduced from 1 μM to 0.3 μM, H9. It counts as cell-based, human. The protocol:
(§1) Total RNA was extracted using TRIzol reagent (Invitrogen) according to manufacturer's protocol followed by DNAase I treatment (Ambion).
(§2) 250-1000 ng of DNAase treated RNA was reverse transcribed using SuperScript II (Invitrogen) and oligo-dT primers (Invitrogen) according to manufacturer's instructions. Reactions were performed in final volume of 20μ1. cDNA was diluted before qPCR analysis.
qPCR was performed using KAPA SYBR FAST master mix (KAPA Biosystem) following standard procedures. qPCR reactions were performed in biological duplicates or triplicates in 384-well plates on the ViiA™ 7 Real-Time PCR System (Life Technologies). Two technical replicates were carried out for each qPCR reaction and data was normalised to GAPDH. The relative abundance of transcripts was calculated using ΔΔC(T) method.
Before fixation with 4% formaldehyde (Sigma) cells were washed with PBS (Gibco) in tissue culture plates (Falcon) for 30 minutes at room temperature. Permeabilization was performed with 1% of Triton-X 100 in PBS followed by blocking step performed in blocking buffer (blocking buffer—8% FBS in PBS-T (PBS-T 1% Tween in PBS)) each for 30 minutes at room temperature. Cells were incubated with primary antibodies, diluted in blocking buffer, overnight at 4° C. with gentle agitation. […]

The next series relates to H9 cells. Kind of series: Karyotyping / cytogenetic analysis. The note with it: PD0325901 reduced from 1 μM to 0.3 μM. It counts as cell-based, human. The protocol:
FIG. 7B is a diagram showing summary of cytogenetic analysis of H9 cells (top) under various naïve culture conditions (rows) and passage numbers (columns). Representative karyotypes at various passage numbers in FINE (bottom).
Various hESCs lines were seeded into glass cover slip slides as single cells. Karyotyping service including colcemid treatment and G-band analysis was outsourced with Parkway Laboratory Services.

In the next series the test system is human tumor xenograft. The note with it: oral, 50 mg/kg/12 h or 75 mg/kg/day, mice; cited from earlier work.
Another series relates to human cancer cultures. The note with it: broad spectrum of human cancer cultures; cited from earlier work.
The next series deals with naïve hESCs. Kind of series: Naïve pluripotency marker expression after short-term supplementation of hits upon feeder withdrawal (qPCR). It counts as cell-based, human.
Description: 3iL and 4 iLA media were supplemented with small molecule compounds at various concentrations for single and combinatory treatments. Small molecules used in the study: Dasatinib (Selleckchem), AZD5438 (TOCRIS), CHIR-98014 (Sigma), Crenolanib (Selleckchem), Saracatinib (Selleckchem), Src Inhibitor-1 (Sigma), Nilotinib (STEMCELL Technologies), Imatinib (STEMCELL Technologies), Dinaciclib (Selleckchem), WH-4-023 (Sigma).
as §1, §2
qPCR was performed using KAPA SYBR FAST master mix (KAPA Biosystem) following standard procedures. qPCR reactions were performed in biological duplicates or triplicates in 384-well plates on the ViiA™ 7 Real-Time PCR System (Life Technologies). Two technical replicates were carried out for each qPCR reaction and data was normalised to GAPDH. The relative abundance of transcripts was calculated using ΔΔC(T) method. […]

A further series concerns cellular CDK substrates. The note with it: cited from earlier work.
In series [1] the test system is LTR7Y-zsGreen reporter cells. Kind of series: High-throughput small molecule screen for feeder-free maintenance of naïve hESCs (LTR7Y-zsGreen fluorescence). The class given is cell-based, human. The note with it: 3iL without feeders. The protocol: 3,000 cells cultured in mTeSR1 (STEMCELL Technologies) or 3iL were seeded per well into 384-well plates (Greiner) coated with 30× Matrigel (Corning) or 30× growth factor reduced Matrigel (Corning) in 45 µl of medium. 4 hours after seeding, cells were treated with anti-cancer and anti-kinase libraries (Selleckchem; kinase inhibitor screening library—customised collection of 273 kinase inhibitors, anti-cancer compound library—customized collection of 349 bioactive compounds). Small molecules were used at 3 different concentrations: 100 nM, 1 μM and 10 μM for each condition. 48 hours after the treatment, culture media was renewed concomitant with a second round of treatment with the compounds. […] Images were processed and fluorescence signal was quantified using Columbus Image Data Storage and Analysis System (PerkinElmer). […] Z-score for zsGreen fluorescence was calculated using formula: z=(X−μ)/s.d. where μ—mean, s.d.—standard deviation of whole population, X−integrated intensity of zsGreen divided by total number of cells. […]
We first ensured the quality of the screen by certifying the absence of intra-plate layout biases (FIG. 8I), proper inter-plate alignment (FIG. 8J) and good correlation between replicates (FIG. 8K). Z-scores were then calculated, and compounds that reproducibly scored above noise (z>2 in at least 2 replicates) were regarded as hits (FIG. 1B, S1L). […]

As to `COc1ccc(N(C(=O)Oc2c(C)cccc2C)c2ccnc(Nc3ccc(N4CCN(C)CC4)cc3)n2)c(OC)c1` [WH-4-023], in the series on hESC, the “requirement for adaptation and maintenance of feeder-free naïve cells” value is “dispensable”. In addition, in the series with FINE cells, the “sustaining feeder-free naïve hESCs when replacing Dasatinib in FINE” value (from here on “sustaining feeder-free naïve hESCs”) is reported as “failed to sustain”.

As to `O=C(NOC[C@H](O)CO)c1ccc(F)c(F)c1Nc1ccc(I)cc1F` [PD0325901, N-[(2R)-2,3-dihydroxypropoxy]-3,4-difluoro-2-(2-fluoro-4-iodoanilino)benzamide], the “effect of lowered concentration in FINE on naïve pluripotent marker expression” value in the series on hESCs is reported as “slight adverse effect”. Besides, in the series on H9 cells, the “effect of lowered concentration in FINE on acquisition of chromosomal abnormalities” value was “further delayed acquisition of chromosomal abnormalities”.

`Cc1ncc(-c2ccnc(Nc3ccc(S(C)(=O)=O)cc3)n2)n1C(C)C` [AZD5438, 4-[2-Methyl-1-(1-methylethyl)-1H-imidazol-5-yl]-N-[4-(methylsulfonyl)phenyl]-2-pyrimidinamine]: the “efficacy against human tumor xenograft growth” value in the series with human tumor xenograft is on record as “efficacious”. Also, the antiproliferation activity result in the series on human cancer cultures is on record as “displays antiproliferation activity”. For the same compound, the “effect on downregulation of naïve pluripotency markers including LTR7Y” value in the series on naïve hESCs (3iL, RNA after 6 days) is on record as “consistently attenuated downregulation”. In addition, the “inhibition of cellular CDK substrates phosphorylation” value with cellular CDK substrates is reported as “effectively inhibits”. In addition, the “morphology after withdrawal from FINE” value in the series with FINE cells is “caused dispersal of the compact morphology”. Further, the “outcome of the screen (hit)” value in series [1] was “identified novel regulators of naïve pluripotency”.

`COc1cc2ncnc(Nc3ccc(Oc4ccccc4)cc3)c2cc1OC` [SRCi]: the “sustaining feeder-free naïve hESCs” value with FINE cells is on record as “failed to sustain”.

Turning to `Cc1ccc(NC(=O)c2ccc(CN3CCN(C)CC3)cc2)cc1Nc1nccc(-c2cccnc2)n1` [Imatinib], the “sustaining feeder-free naïve hESCs” value with FINE cells is given as “failed to sustain”.

For `Cc1cn(-c2cc(NC(=O)c3ccc(C)c(Nc4nccc(-c5cccnc5)n4)c3)cc(C(F)(F)F)c2)cn1` [Nilotinib], in the series on FINE cells, the “sustaining feeder-free naïve hESCs” value is listed as “failed to sustain”.

As for `Cc1nc(Nc2ncc(C(=O)Nc3c(C)cccc3Cl)s2)cc(N2CCN(CCO)CC2)n1.O` [Dasatinib, N-(2-chloro-6-methylphenyl)-2-[[6-[4-(2-hydroxyethyl)-1-piperazinyl]-2-methyl-4-pyrimidinyl]amino]-5-thiazole carboxamide monohydrate], in the series with naïve hESCs (4iLA, RNA after 12 days), the “effect on downregulation of naïve pluripotency markers” value was “had the same effect”. In addition, the “loss of naivety upon withdrawal from FINE” value with FINE cells (compared with AZD5438 withdrawal) is “more pronounced effect”. Moreover, the “morphology after withdrawal from FINE” value with FINE cells was “caused dispersal of the compact morphology”. Also, in [1], the “outcome of the screen (hit)” value is given as “identified novel regulators of naïve pluripotency”.
